Laboratory results as given in patent publication US9012626B2, “Rebaudioside a composition and method for purifying rebaudioside a” (The Coca-Cola Company, priority 2006, dated 2015).

Test: Rate of dissolution in H2O at 25° C.
Type: physicochemical

Rate of dissolution in H2O at 25° C. (grade in words)	Rate of dissolution in H2O at 25° C. (amount dissolved) (in 60 minutes)	Rate of dissolution in H2O at 25° C. (amount dissolved) (in 5 minutes)	Rate of dissolution compared to the polymorphic forms (Forms 1, 2, or 3)	Compound
Very low	(<0.2% in 60			C=C1C[C@@]23CC[C@H]4[C@@](C)(CCC[C@@]4(C)C(=O)O[C@@H]4O[C@H](CO)[C@@H](O)[C@H](O)[C@H]4O)[C@@H]2CC[C@]1(O[C@@H]1O[C@H](CO)[C@@H](O)[C@H](O[C@@H]2O[C@H](CO)[C@@H](O)[C@H](O)[C@H]2O)[C@H]1O[C@@H]1O[C@H](CO)[C@@H](O)[C@H](O)[C@H]1O)C3 [Form 1, rebaudioside A]
Intermediate		(<30% in 5		C=C1C[C@@]23CC[C@H]4[C@@](C)(CCC[C@@]4(C)C(=O)O[C@@H]4O[C@H](CO)[C@@H](O)[C@H](O)[C@H]4O)[C@@H]2CC[C@]1(O[C@@H]1O[C@H](CO)[C@@H](O)[C@H](O[C@@H]2O[C@H](CO)[C@@H](O)[C@H](O)[C@H]2O)[C@H]1O[C@@H]1O[C@H](CO)[C@@H](O)[C@H](O)[C@H]1O)C3 [Form 2, rebaudioside A]
High		(>30% in 5		C=C1C[C@@]23CC[C@H]4[C@@](C)(CCC[C@@]4(C)C(=O)O[C@@H]4O[C@H](CO)[C@@H](O)[C@H](O)[C@H]4O)[C@@H]2CC[C@]1(O[C@@H]1O[C@H](CO)[C@@H](O)[C@H](O[C@@H]2O[C@H](CO)[C@@H](O)[C@H](O)[C@H]2O)[C@H]1O[C@@H]1O[C@H](CO)[C@@H](O)[C@H](O)[C@H]1O)C3 [Form 3, rebaudioside A]
High		(>35% in 5	improved rate of dissolution	C=C1C[C@@]23CC[C@H]4[C@@](C)(CCC[C@@]4(C)C(=O)O[C@@H]4O[C@H](CO)[C@@H](O)[C@H](O)[C@H]4O)[C@@H]2CC[C@]1(O[C@@H]1O[C@H](CO)[C@@H](O)[C@H](O[C@@H]2O[C@H](CO)[C@@H](O)[C@H](O)[C@H]2O)[C@H]1O[C@@H]1O[C@H](CO)[C@@H](O)[C@H](O)[C@H]1O)C3 [Form 4, rebaudioside A]
